Measured values from patent US20220235064A1 (WELLMARKER BIO CO., LTD., priority 2019, published 2022).

Legend:
[1] = system: cancer cell line KM12C, in which RON is activated; assay: Cell growth inhibitory ability in RON-activated cancer cell line (MTS); assay type: cell-based; settings: Homo sapiens, 48 hours, absorbance 490 nm
Method: Experimental Example 2: Identification of Cell Growth Inhibitory Ability of Example Compounds in RON-Activated Cancer Cell Line
The cancer cell line KM12C (80015, KCLB, MEM+1K° FBS), in which RON is activated, was treated with each of the example compounds at a concentration of 10 μM, and then reaction was allowed to proceed for 48 hours. 24 hours after completion of the reaction, 20 μl of MTS solution (CellTiter 96 Aqueous One Solution Cell Proliferation Assay, product number: G3581, Promega) was added to each well, and then incubation was performed at a temperature of 37° C. in 50 CO2 incubator for 4 hours. Then, an IC50 value of the compound was derived by measuring its absorbance value at a wavelength of 490 nm using a Victor X5 plate reader. Here, as a positive control, N-(4-(2-amino-3-chloropyridin-4-yloxy)-3-fluorophenyl)-4-ethoxy-1-(4-fluorophenyl)-2-oxo-1,2-dihydropyridine-3-carboxamide, which is the compound of Example 1 in WO 2008/058229 A1, was used.

RON tyrosine kinase = target: T1, RON tyrosine kinase (Homo sapiens, UniProt Q04912); assay: Enzyme inhibitory activity against RON tyrosine kinase (TR-FRET); assay type: biochemical; settings: RON (Carna Bioscience)
T1 construct: purchased Carna Bioscience
Method: Experimental Example 1: Measurement of Enzyme Inhibitory Activity Against RON Tyrosine Kinase
To measure enzyme inhibitory activity of the example compounds against RON, IC50 values of the compounds were measured using fluorescence resonance energy transfer (FRET).
Specifically, first, RON (Carna Bioscience) was diluted in a kinase assay buffer (50 mM HEPES pH 7.5, 1 mM EGTA, 10 mM MgCl2, 2 mM DTT, and 0.01% Tween-20) to be at a concentration (0.4 nM) that is twice the final reaction concentration. The dilute was added to a 384-well-plate at 5 μl per well. Each of the example compounds was prepared at a concentration of 1 mM in 100% DMSO and diluted 8 times in a stepwise manner through 10-fold dilution. Each compound was diluted in a kinase assay buffer to be at a concentration that is 4 times the final reaction concentration. The dilute was added to a 384-well-plate at 2.5 μl per well, and incubation was performed at room temperature for 15 minutes.
Thereafter, an ATP solution (Sigma Aldrich) prepared at a concentration of 0.25 M was diluted in a kinase assay buffer to be at a concentration (60 μM) that is 4 times the final reaction concentration. Dilution of a tyrosine peptide substrate (Perkin-Elmer) was performed therein to be at a concentration (400 nM) that is 4 times the final reaction concentration. The dilute was added to a 384-well-plate at 2.5 µl per well. Reaction was allowed to proceed for 60 minutes by incubating the 384-well-plate at room temperature. Thereafter, EDTA (Sigma Aldrich) was diluted in a TR-FRET detection buffer (Perkin-Elmer) to be at a concentration (20 mM) that is twice the final reaction concentration. Dilution of a Europium-containing phosphotyrosine antibody (Perkin-Elmer) was performed in the diluted EDTA solution to be at a concentration (4 nM) that is twice the final reaction concentration, so that a stop solution for RON reaction was prepared.
The stop solution was added to the 384-well-plate at 10 μl per well to quench the reaction, and incubation was performed at room temperature for 60 minutes. Then, the 384-well-plate was read on a Victor X5 (Perkin-Elmer) plate reader. Here, the excitation wavelength was 340 nm, and the emission wavelengths were 620 nm and 665 nm. An IC50 value of the compound was derived using GraphPad Prism 5 program, in which the IC50 was derived by expressing emission energy at the wavelength of 665 nm as a function of the compound concentration.

[2] = system: cancer cell line KM12C, in which RON is activated; assay: Cell-killing efficacy in RON-activated cancer cell line (trypan blue); assay type: cell-based; settings: Homo sapiens, 48 hours, trypan blue, n=2, read-out: Cell death (%) Cancer cell line KM12C
Method: Experimental Example 3: Measurement of Cell-Killing Efficacy of Example Compounds in RON-Activated Cancer Cell Line
The cancer cell line KM12C (80015, KCLB, MEM+10% FBS), in which RON is activated, was dispensed into each 60 mm^2 dish at 1×10^5 cells. After 24 hours, the dish was treated with each of the example compounds at a concentration of 1 μM or 5 μM while performing medium exchange, and then reaction was allowed to proceed for 48 hours. After 48 hours, centrifugation was performed for 4 minutes at 1,500 rpm to collect cells and cell fluid. Thereafter, living cells and dead cells were quantified (n=2) using a trypan blue solution (15250-061, Gibco), and statistical analysis was performed using Excel-T-test. Here, as a negative control, only a solvent (0.100 DMSO) was used; and as a positive control, N-(4-(2-amino-3-chloropyridin-4-yloxy)-3-fluorophenyl)-4-ethoxy-1-(4-fluorophenyl)-2-oxo-1,2-dihydropyridine-3-carboxamide, which is the compound of Example 1 in WO 2008/058229 A1, was used.

T1 sequence (Q04912 25-1400): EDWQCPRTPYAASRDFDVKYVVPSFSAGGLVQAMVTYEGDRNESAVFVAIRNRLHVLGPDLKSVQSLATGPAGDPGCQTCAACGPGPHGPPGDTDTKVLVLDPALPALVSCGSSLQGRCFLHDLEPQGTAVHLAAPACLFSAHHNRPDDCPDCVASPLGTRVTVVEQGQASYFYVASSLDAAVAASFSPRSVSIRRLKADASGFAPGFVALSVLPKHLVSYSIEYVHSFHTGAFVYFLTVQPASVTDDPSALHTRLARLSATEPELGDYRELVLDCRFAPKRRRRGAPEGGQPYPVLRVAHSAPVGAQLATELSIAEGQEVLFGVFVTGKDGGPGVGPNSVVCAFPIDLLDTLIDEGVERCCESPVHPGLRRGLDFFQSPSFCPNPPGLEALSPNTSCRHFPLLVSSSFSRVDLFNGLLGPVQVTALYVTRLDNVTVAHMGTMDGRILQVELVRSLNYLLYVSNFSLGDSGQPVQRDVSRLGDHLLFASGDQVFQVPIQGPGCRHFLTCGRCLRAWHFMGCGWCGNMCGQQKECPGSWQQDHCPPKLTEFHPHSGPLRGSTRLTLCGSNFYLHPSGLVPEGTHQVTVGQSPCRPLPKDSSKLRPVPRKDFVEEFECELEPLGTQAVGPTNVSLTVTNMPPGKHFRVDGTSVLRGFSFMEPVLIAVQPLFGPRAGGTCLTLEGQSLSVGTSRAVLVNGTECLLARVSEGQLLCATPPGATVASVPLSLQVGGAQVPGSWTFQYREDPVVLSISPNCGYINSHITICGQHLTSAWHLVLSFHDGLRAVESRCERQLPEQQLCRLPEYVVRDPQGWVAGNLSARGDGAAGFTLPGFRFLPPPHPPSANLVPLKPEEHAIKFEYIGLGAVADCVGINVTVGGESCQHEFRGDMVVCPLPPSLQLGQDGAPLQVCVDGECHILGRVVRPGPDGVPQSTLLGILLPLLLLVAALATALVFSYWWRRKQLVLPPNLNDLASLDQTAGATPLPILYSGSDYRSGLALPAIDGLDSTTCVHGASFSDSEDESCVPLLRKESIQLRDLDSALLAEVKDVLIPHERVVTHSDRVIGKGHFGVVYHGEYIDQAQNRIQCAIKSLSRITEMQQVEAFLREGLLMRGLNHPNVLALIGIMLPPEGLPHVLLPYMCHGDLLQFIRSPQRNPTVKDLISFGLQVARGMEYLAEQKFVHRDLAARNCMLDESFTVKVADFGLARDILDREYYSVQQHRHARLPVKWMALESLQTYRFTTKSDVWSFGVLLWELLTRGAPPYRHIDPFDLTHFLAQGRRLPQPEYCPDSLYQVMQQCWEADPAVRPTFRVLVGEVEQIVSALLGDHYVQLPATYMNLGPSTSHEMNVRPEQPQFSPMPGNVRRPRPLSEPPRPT

SMILES | IC50 [1] | IC50 (RON tyrosine kinase) | cytotoxicity at 1 µM [2] | cytotoxicity at 5 µM [2]
O=C(Nc1ccc(Oc2ccnc3cc(-c4ccccn4)sc23)c(F)c1)c1c2c(cn(-c3ccccc3)c1=O)CCO2 [Example 4] | 8 nM | 0.35 nM |  | 
O=C(Nc1ccc(Oc2ccnc3cc(-c4ccc(CN5CCC(F)C5)cn4)sc23)c(F)c1)c1c2c(cn(-c3ccc(F)cc3)c1=O)CCO2 (centres unmarked) [Example 27, N-(3-Fluoro-4-((2-(5-((3-fluoropyrrolidin-1-yl)methyl)pyridin-2-yl)thieno[3,2-b]pyridin-7-yl)oxy)phenyl)-5-(4-fluorophenyl)-6-oxo-2,3,5,6-tetrahydrofuro[3,2-c]pyridine-7-carboxamide] | 2 nM |  | 17.3% | 29%
O=C(Nc1ccc(Oc2ccnc3cc(-c4ccc(CN5CCC(F)(F)C5)cn4)sc23)c(F)c1)c1c2c(cn(-c3ccc(F)cc3)c1=O)CCO2 [Example 28, N-(4-((2-(5-((3,3-Difluoropyrrolidin-1-yl)methyl)pyridin-2-yl)thieno[3,2-b]pyridine-7-yl)oxy)-3-fluorophenyl)-5-(4-fluorophenyl)-6-oxo-2,3,5,6-tetrahydrofuro[3,2-c]pyridine-7-carboxamide] | 3 nM |  | 9.6% | 10.3%
O=C(Nc1ccc(Oc2ccnc3cc(-c4ccc(CN5CCC(O)CC5)cn4)sc23)c(F)c1)c1c2c(cn(-c3ccc(F)cc3)c1=O)CCO2 [Example 29, N-(3-Fluoro-4-((2-(5-((4-hydroxypiperidin-1-yl)methyl)pyridin-2-yl)thieno[3,2-b]pyridin-7-yl)oxy)phenyl)-5-(4-fluorophenyl)-6-oxo-2,3,5,6-tetrahydrofuro[3,2-c]pyridine-7-carboxamide] | 1 nM |  | 22.6% | 24.5%
O=C(Nc1ccc(Oc2ccnc3cc(-c4ccc(CN5CCCC(O)C5)cn4)sc23)c(F)c1)c1c2c(cn(-c3ccc(F)cc3)c1=O)CCO2 (centres unmarked) [Example 30, N-(3-Fluoro-4-((2-(5-((3-hydroxypiperidin-1-yl)methyl)pyridin-2-yl)thieno[3,2-b]pyridin-7-yl)oxy)phenyl)-5-(4-fluorophenyl)-6-oxo-2,3,5,6-tetrahydrofuro[3,2-c]pyridine-7-carboxamide] | 1 nM |  | 24.8% | 25.9%
COC1CCCN(Cc2ccc(-c3cc4nccc(Oc5ccc(NC(=O)c6c7c(cn(-c8ccc(F)cc8)c6=O)CCO7)cc5F)c4s3)nc2)C1 (centres unmarked) [Example 32, N-(3-Fluoro-4-((2-(5-((3-methoxypiperidin-1-yl)methyl)pyridin-2-yl)thieno[3,2-b]pyridin-7-yl)oxy)phenyl)-5-(4-fluorophenyl)-6-oxo-2,3,5,6-tetrahydrofuro[3,2-c]pyridine-7-carboxamide] | 6 nM |  | 13.5% | 20.4%
O=C(Nc1ccc(Oc2ccnc3cc(-c4ccc(CN5CCC(F)CC5)cn4)sc23)c(F)c1)c1c2c(cn(-c3ccc(F)cc3)c1=O)CCO2 [Example 34, N-(3-Fluoro-4-((2-(5-((4-fluoropiperidin-1-yl)methyl)pyridin-2-yl)thieno[3,2-b]pyridin-7-yl)oxy)phenyl)-5-(4-fluorophenyl)-6-oxo-2,3,5,6-tetrahydrofuro[3,2-c]pyridine-7-carboxamide] | 3 nM |  | 13.7% | 15.9%
O=C(Nc1ccc(Oc2ccnc3cc(-c4ccc(CN5CCC(F)(F)CC5)cn4)sc23)c(F)c1)c1c2c(cn(-c3ccc(F)cc3)c1=O)CCO2 [Example 35, N-(4-((2-(5-((4,4-Difluoropiperidin-1-yl)methyl)pyridin-2-yl)thieno[3,2-b]pyridine-7-yl)oxy)-3-fluorophenyl)-5-(4-fluorophenyl)-6-oxo-2,3,5,6-tetrahydrofuro[3,2-c]pyridine-7-carboxamide] | 4 nM |  | 19.6% | 28.1%
CC1CCN(Cc2ccc(-c3cc4nccc(Oc5ccc(NC(=O)c6c7c(cn(-c8ccc(F)cc8)c6=O)CCO7)cc5F)c4s3)nc2)CC1 [Example 36, N-(3-Fluoro-4-((2-(5-((4-methylpiperidin-1-yl)methyl)pyridin-2-yl)thieno[3,2-b]pyridin-7-yl)oxy)phenyl)-5-(4-fluorophenyl)-6-oxo-2,3,5,6-tetrahydrofuro[3,2-c]pyridine-7-carboxamide] | 5 nM |  | 17.1% | 30%

The next lines start with results.

IC50 [1] | IC50 (RON tyrosine kinase) | SMILES | cytotoxicity at 1 µM [2] | cytotoxicity at 5 µM [2]
3 nM |  | COc1cc2c(Oc3ccc(NC(=O)c4c5c(cn(-c6ccc(F)cc6)c4=O)CCO5)cc3F)ccnc2cc1OCCCN1CC(C#N)C1 [Example 88, N-(4-((7-(3-(3-Cyanoazetidin-1-yl)propoxy)-6-methoxyquinolin-4-yl)oxy)-3-fluorophenyl)-5-(4-fluorophenyl)-6-oxo-2,3,5,6-tetrahydrofuro[3,2-c]pyridine-7-carboxamide] | 18.8% | 24.7%
50 nM |  | COc1cc2c(Oc3ccc(NC(=O)c4c5c(cn(-c6ccc(F)cc6)c4=O)CCO5)cc3F)ccnc2cc1OCCCN1CCC(C)(O)C1 (centres unmarked) [Example 91, N-(3-Fluoro-4-((7-(3-(3-hydroxy-3-methylpyrrolidin-1-yl)propoxy)-6-methoxyquinoline-4-yl)oxy)phenyl)-5-(4-fluorophenyl)-6-oxo-2,3,5,6-tetrahydrofuro[3,2-c]pyridine-7-carboxamide] | 12.7% | 14.3%
5 nM |  | COc1cc2c(Oc3ccc(NC(=O)c4c5c(cn(-c6ccc(F)cc6)c4=O)CCO5)cc3F)ccnc2cc1OCCCN1CCC(F)(F)C1 [Example 95, N-(4-((7-(3-(3,3-Difluoropyrrolidin-1-yl)propoxy)-6-methoxyquinolin-4-yl)oxy)-3-fluorophenyl)-5-(4-fluorophenyl)-6-oxo-2,3,5,6-tetrahydrofuro[3,2-c]pyridine-7-carboxamide] | 19.6% | 25.6%
1 nM |  | COc1cc2c(Oc3ccc(NC(=O)c4c5c(cn(-c6ccc(F)cc6)c4=O)CCO5)cc3F)ccnc2cc1OCCCN1CCS(=O)(=O)CC1 [Example 102, N-(4-((7-(3-(1,1-Dioxidothiomorpholino)propoxy)-6-methoxyquinolin-4-yl)oxy)-3-fluorophenyl)-5-(4-fluorophenyl)-6-oxo-2,3,5,6-tetrahydrofuro[3,2-c]pyridine-7-carboxamide] | 23.4% | 29.7%
2 nM |  | COc1cc2c(Oc3ccc(NC(=O)c4c5c(cn(-c6ccc(F)cc6)c4=O)CCO5)cc3F)ccnc2cc1OCCN1CCC(C)(O)CC1 [Example 137, N-(3-Fluoro-4-((7-(2-(4-hydroxy-4-methylpiperidin-1-yl)ethoxy)-6-methoxyquinoline-4-yl)oxy)phenyl)-5-(4-fluorophenyl)-6-oxo-2,3,5,6-tetrahydrofuro[3,2-c]pyridine-7-carboxamide] | 18.2% | 22.4%
